Test [1] concerns the target recombinant human p38α MAP kinase (Homo sapiens, UniProt Q16539). Briefly: Study on p38α MAP kinase inhibitory activity (ATF-2 phosphorylation, Alpha Screen). The class given is biochemical. As to conditions: ATF2 substrate, ATP 90 μmol/L. Here is the method:
Using activation transcription factor-2 (hereinafter abbreviated as ATF-2) which is a substrate for p38α MAP kinase, the inhibitory action of the compounds of the present invention was investigated on the phosphorylation by a recombinant human p38α MAP kinase.
A kinase buffer (25 mM Tris-HCl (pH 7.5), 5 mM […], 2 mM dithiothreitol, 0.1 mM Na3VO4, 10 mM MgCl2) containing a recombinant human p38α MAP kinase was added to a 384-well plate (5 μL) (6.25 ng protein/well) for fluorescence measurement. After addition of a kinase buffer (5 μL) containing the compound of the present invention, the resulting mixture was incubated at room temperature for 20 minutes. A substrate mixture (5 μL) of biotinylated ATF2 of 5 μg/mL (Upstate Biotechnology #14-432), adenosine triphosphate (90 μmol/L) (Sigma #FL-AAS) and anti-phosphorylated ATF2 antibody (20-fold dilution) (Cell Signaling Technology #9221L) prepared separately was added thereto, and enzyme reaction was carried out at 30° C. for 30 minutes. After the reaction, Hepes buffer (5 μL) containing 0.25% BSA and 100 mM EDTA was added to stop the enzyme reaction. The amount of a complex of the phosphorylated ATF2 and anti-phosphorylated ATF2 antibody produced by the reaction was measured using an Alpha Screenm Rabbit Detection kit (Packard #6760607).
The p38α MAP kinase inhibitory activity, which is the effect of the compound of the present invention, was calculated as an inhibition rate (%) according to the following equation:
(§1) Inhibition rate (%)={(AC−AX)/(AC−AB)}×100
Inhibition rate of compounds with each concentration was calculated, and a value indicating 50% inhibition (IC50) was determined from the inhibition curve.

Test [2] has as its system TNF-α production, THP-1 human monocyte cell line. Kind of test: Inhibitory activity against TNF-α production using human cell lines (LPS-stimulated THP-1). Particulars: 1.5 h, THP-1 cells, LPS stimulation, 90 minutes. The class given is cell-based. As to the method:
Using THP-1 which is a human monocyte cell line, the inhibitory effect of the compound of the present invention against TNF-α production stimulated by lipopolysaccharide (LPS) was studied.
Each 50 μL of lipopolysaccharide (LPS; Difco #3120-25-0) prepared to a concentration of 40 ng/mL using RPMI-1640 medium containing 10% fetal calf serum (hereinafter abbreviated to RPMI-1640) and RPMI-1640 containing the compound of the present invention was added to a 96-well plate for cell culture. One hundred μL of the cell suspension of THP-1 (Dainippon Pharmaceutical Co., Ltd, #06-202) prepared to a cell density of 2×10^6 cells/mL using RPMI-1640 was added and cultured for 90 minutes at 37° C. in an incubator (5% CO2, 95% air). After completion of the reaction, the culture medium supernatant was recovered and the amount of produced TNF-α was measured using an ELISA kit (Invitrogen, #850090192).
The inhibitory activity against TNF-α production, which is the effect of the compound of the present invention, was calculated as an inhibition rate (%) by the following equation:
as §1
AX is a measured value with LPS induction in the presence of a test compound. Inhibition rate of compounds with each concentration was calculated, and a value indicating 50% inhibition (IC50) was determined from the inhibition curve.

For test [3], the system named is TNF-α production induced by lipopolysaccharide (LPS). Kind of test: Rat cytokine-production model (LPS-induced TNF-α in plasma). Type of test: in vivo. As to conditions: dose of 3 mg/kg orally, LPS 10 μg/kg intravenously after 2 hours, plasma 90 minutes after LPS. Here is the method: The in vivo effect of the compound of the present invention was studied on TNF-α production induced by lipopolysaccharide (LPS) in rats.
A vehicle containing the compound of the present invention was orally administered to male Lew […] (Charles River Japan, Inc.), and after 2 hours, lipopolysaccharide (LPS, 055:B5, Difco) was intravenously administered at the dose of 10 μg/kg (5 animals/group). Only a vehicle was orally administered to a control group (5 animals). Ninety minutes after the LPS treatment, heparinized blood collection was performed via the abdominal cava vein under anesthesia with ether, and blood plasma was obtained by centrifugation (12,000 rpm, 3 minutes, 4° C.). The obtained blood plasma sample was stored at −80° C. until it was used. TNF-α in the blood plasma was measured using an ELISA kit from Genzyme/Techne (#10516).
The inhibitory activity of the compound of the present invention against TNF-α production was calculated as an inhibition rate (%) according to the following equation:
Inhibition rate (%)={(AC−AX)/A^C}×100

recombinant human p38α MAP kinase, sequence (Q16539 whole entry): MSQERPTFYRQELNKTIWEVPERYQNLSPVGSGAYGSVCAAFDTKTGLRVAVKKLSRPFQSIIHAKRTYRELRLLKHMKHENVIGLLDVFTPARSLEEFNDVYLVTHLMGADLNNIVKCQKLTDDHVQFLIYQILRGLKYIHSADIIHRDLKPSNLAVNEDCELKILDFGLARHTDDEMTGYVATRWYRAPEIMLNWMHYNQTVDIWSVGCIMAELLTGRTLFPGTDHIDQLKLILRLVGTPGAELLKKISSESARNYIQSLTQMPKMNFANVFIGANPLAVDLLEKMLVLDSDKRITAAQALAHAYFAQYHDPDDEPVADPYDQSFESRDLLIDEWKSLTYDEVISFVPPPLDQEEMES

The term IC50 denotes the midpoint of a concentration-inhibition curve. Regarding `O=c1ccc(C(=NO)c2ccc(F)cc2F)cn1-c1c(Cl)cccc1Cl` [Example 7, 1-(2,6-dichlorophenyl)-5-[(2,4-difluorophenyl)(hydroxyimino)methyl]pyridin-2(1H)-one], the IC50 in test [1] was determined as 4.9 nM.
In the case of `Cc1cc(F)cc(C)c1-n1cc(/C(=N/OC2CCN(C)CC2)c2ccc(F)cc2F)ccc1=O` [Example 48, 5-((Z)-(2,4-difluorophenyl) {[(1-methyl-4-piperidinyl)oxy]iimino}methyl)-1-(4-fluoro-2,6-dimethylphenyl)-2(1H)-pyridinone], the figures for the IC50 in test [1] and in test [2] were 34 nM and 2.4 nM, respectively. Further, in test [3], the “inhibition against in vivo TNF-α production induced by LPS stimulation” value is 72%.
The matching figures for `Cc1cc(C)c(-n2cc(C(=NOC3CCN(C)CC3)c3ccc(F)cc3F)ccc2=O)c(C)c1` [Example 52(9), 5-((2,4-difluorophenyl){[(1-methyl-4-piperidinyl)oxy]imino}methyl)-1-mesityl-2(1H)-pyridinone]: 20.5 nM, 7.1 nM and 72%.

Source of the values: patent US20080081825A1, “Nitrogen-Containing Heterocyclic Compounds and Medicinal Use Thereof” (priority 2004, published 2008).
